Molecules are shown by their SMILES. Read-outs that look alike come from different tables or passages of the source.

For data set [1], the target named is T1, purified class A, C and D enzymes (UniProt Q9F663).
T1 construct: rows headed: Ki (KPC-2, NCF); other: purified KPC-2; nitrocefin reporter substrate
It counts as biochemical. As to conditions: read-out: Ki (KPC-2, NCF); purified KPC-2; nitrocefin reporter substrate.

Data set [2] deals with T2, purified class A, C and D enzymes (UniProt Q48434).
T2 construct: rows headed: Ki (CMY-2, NCF); other: purified CMY-2; nitrocefin reporter substrate
It counts as biochemical. As to conditions: read-out: Ki (CMY-2, NCF); purified CMY-2; nitrocefin reporter substrate.

Data set [3] concerns the target T3, purified class A, C and D enzymes (UniProt Q6XEC0).
T3 construct: rows headed: Ki (OXA-48, NCF); other: purified OXA-48; nitrocefin reporter substrate
It counts as biochemical. As to conditions: read-out: Ki (OXA-48, NCF); purified OXA-48; nitrocefin reporter substrate.

The target in data set [4] is purified class A, C and D enzymes (Escherichia coli, UniProt Q9L5C7). Type of data set: biochemical.
Sequence of purified class A, C and D enzymes (Escherichia coli, UniProt Q9L5C7) (Q9L5C7 entry or part of it): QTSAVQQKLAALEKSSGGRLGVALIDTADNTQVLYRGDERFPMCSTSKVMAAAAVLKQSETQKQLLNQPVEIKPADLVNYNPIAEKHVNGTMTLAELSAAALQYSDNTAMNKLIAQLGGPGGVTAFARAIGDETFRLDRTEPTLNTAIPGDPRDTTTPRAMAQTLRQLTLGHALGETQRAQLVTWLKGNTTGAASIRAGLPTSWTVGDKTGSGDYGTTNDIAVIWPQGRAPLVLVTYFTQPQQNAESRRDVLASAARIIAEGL
For the next data set, the target named is T4, VIM-1 (Pseudomonas aeruginosa, UniProt A0A0F7KYQ8).
T4 construct: made in house; host or cells: ECM6711 strain carrying pUCP24-VIM-1 plasmid; culture supernatant used unpurified
The data set can be described thus: biochemical. As to conditions: cleavage of nitrocefin (200 uM) by VIM-1 supernatant.

For data set [5], the target named is T5, NDM-1 (Klebsiella pneumoniae, UniProt C7C422). The data set can be described thus: Inhibition of purified class B carbapenemase NDM-1 (Ki, imipenem substrate). It counts as biochemical. As to conditions: NDM-1, substrate imipenem; read-out: Ki NDM-1, Imipenem.
T5 sequence (C7C422 29-270, looked up, species assumed): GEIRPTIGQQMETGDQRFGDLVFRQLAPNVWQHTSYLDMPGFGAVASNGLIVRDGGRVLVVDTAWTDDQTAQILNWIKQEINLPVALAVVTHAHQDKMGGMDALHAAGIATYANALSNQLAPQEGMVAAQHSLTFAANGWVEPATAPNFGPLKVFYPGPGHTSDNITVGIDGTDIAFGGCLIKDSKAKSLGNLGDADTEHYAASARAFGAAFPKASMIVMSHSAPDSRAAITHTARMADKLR
Data set [6] concerns the target T5, NDM-1. The data set can be described thus: biochemical.
For a further data set, the target named is OXA-48 (Klebsiella pneumoniae, UniProt Q6XEC0). The data set can be described thus: Inhibition of purified class D carbapenemase OXA-48 (Ki, carbapenem substrates). It counts as biochemical.
Sequence of OXA-48 (Q6XEC0 23-265, looked up): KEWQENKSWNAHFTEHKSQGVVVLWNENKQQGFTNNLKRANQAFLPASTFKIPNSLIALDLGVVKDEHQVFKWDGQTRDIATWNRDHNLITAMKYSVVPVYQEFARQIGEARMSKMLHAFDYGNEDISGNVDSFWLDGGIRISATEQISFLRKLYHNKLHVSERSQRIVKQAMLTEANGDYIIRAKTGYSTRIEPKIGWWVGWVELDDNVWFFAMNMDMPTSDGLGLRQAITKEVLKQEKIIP
The target in data set [7] is T6, purified class A, C and D enzymes (UniProt P0AD64, L31Q/G234S/E235K, species not given).
T6 construct: Ki (SHV-12, NCF); other: purified SHV-12; nitrocefin reporter substrate
T6 sequence (P0AD64 1-286 L31Q/G234S/E235K): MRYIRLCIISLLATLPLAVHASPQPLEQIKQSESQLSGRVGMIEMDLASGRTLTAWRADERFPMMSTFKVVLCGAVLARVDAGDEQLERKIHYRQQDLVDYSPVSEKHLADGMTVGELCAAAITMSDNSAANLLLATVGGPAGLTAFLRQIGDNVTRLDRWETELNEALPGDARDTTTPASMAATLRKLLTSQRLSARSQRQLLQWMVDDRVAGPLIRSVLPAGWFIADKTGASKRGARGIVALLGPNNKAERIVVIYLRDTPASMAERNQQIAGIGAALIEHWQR
It counts as biochemical. As to conditions: read-out: Ki (SHV-12, NCF); purified SHV-12; nitrocefin reporter substrate.

Data set [8] is described as follows: Serum stability of prodrugs: hydrolysis by human serum. It counts as in vitro ADME. As to conditions: prodrug; for Measured Initial Conc. in Serum: 37 degrees, sampled immediately. As for the experimental part:
(§1) Prodrug strategy is one of the ways to achieve or increase oral bioavailability for therapeutic drugs. Compound 62 was used as a template for various ester prodrugs. After a prodrug molecule is absorbed into systemic circulation, it should be hydrolyzed in the blood in order to release the active form. Hydrolysis of several prodrugs by rat and human serum were evaluated.
(§2) For all stability experiments the test compounds were treated with rat or human serum in Eppendorf tubes. Typically, 980 μl of serum was prewarmed at 37 degrees for 2 minutes and then 20 μl of a compound (at 1 mg/ml, 50×) was added to it to get a final concentration of 20 μg/ml and immediately mixed. Duplicate samples were tested. […] After vortexing for 30 seconds, the tube was centrifuged in a microcentrifuge for 10 minutes at 15K rpm. Next, 100 μl of the supernatant was combined with 600 μl of water and injected on LC-MS using 0.1% formic acid in water for mobile phase A and 0.1% formic acid in methanol for mobile phase B on an ACE 5 C18 2.1×100 mm column with a 10 μL it injection. The flow rate and gradient were adjusted as needed to give the desired resolution and run time. The pH of the mobile phase was adjusted if needed to improve the chromatography.
(§3) The time course of both the disappearance of a prodrug and the appearance of the active form of that prodrug is presented in Table 13 and Table 14. The active metabolites for all of the listed prodrugs are corresponding parent drugs

Data set [9] in a line: Serum stability of prodrugs: hydrolysis by rat serum. Type of data set: in vitro ADME. As to conditions: for Measured Initial Conc. in Serum / Conc. at t = 1 hr / Conc. at t = 3 hr: rat serum, prodrug; for Measured Initial Conc. in Serum: 37 degrees, sampled immediately. Here is the method: as §1, §2, §3
Setting [10] is: cleavage of biapenem (100 uM) by NDM-1, read-out: Ki, Biapenem.
[11] abbreviates: cleavage of imipenem (100 uM) by NDM-1, read-out: Ki, Imipenem.
Setting [12] is: purified OXA-48, substrate biapenem, read-out: Ki OXA-48, Biapenem.

One may read the Ki as a measure of affinity in units of concentration, obtained from inhibition or displacement. Take `O=C(O)[C@H]1/C(=C/CO)O[C@@H]2CC(=O)N21` [Clavulanic acid]: the Ki in [1], in data set [2] and in data set [3] was more than 1000 nM each time. Also, the “Ki (CTX-M-14, NCF)” value in [4] is given as “X (key: X: Less than 0.1 μM; Y: 0.1 μM to 1 μM; Z: Greater than 1 μM)”.
A word on the IC50: it is the concentration that gives 50% inhibition. Low values mean greater potency, high ones weaker potency. As to `Nc1nnc(S[C@H]2Cc3cccc(C(=O)O)c3OB2O)s1` [Compound 4, (R)-3-(5-amino-1,3,4-thiadiazol-2-ylthio)-2-hydroxy-3,4-dihydro-2H-benzo[e][1,2]oxaborinine-8-carboxylic acid], on VIM-1, the half-inhibitory concentration (IC50) is less than 1000 nM. Moreover, the Ki is less than 10 nM on NDM-1 [5]; less than 10 nM at NDM-1 [6] (setting [10]); less than 10 nM on NDM-1 [6] (setting [11]); less than 10 nM at NDM-1 [6] (cleavage of tebipenem (100 uM) by NDM-1, read-out: Ki, Tebipenem); less than 10 nM at OXA-48 (cleavage of biapenem by OXA-48, read-out: Ki, Biapenem); 10 to 100 nM at OXA-48 (cleavage of doripenem by OXA-48, read-out: Ki, Doripenem). Moreover, the Ki is less than 10 nM at OXA-48 (cleavage of imipenem by OXA-48, read-out: Ki, Imipenem); more than 100 nM on OXA-48 (cleavage of meropenem by OXA-48, read-out: Ki, Meropenem); 10 to 100 nM at OXA-48 (cleavage of tebipenem by OXA-48, read-out: Ki, Tebipenem); less than 10 nM on OXA-48 (setting [12]); less than 100 nM in data set [2]; less than 100 nM in [3]. Further, the Ki in data set [7] was less than 100 nM.
For the compound `CC(=O)Nc1nnc(S[C@H]2Cc3cccc(C(=O)O)c3OB2O)s1` [Compound 7, (R)-3-(5-acetamido-1,3,4-thiadiazol-2-ylthio)-2-hydroxy-3,4-dihydro-2H-benzo[e][1,2]oxaborinine-8-carboxylic acid], the IC50 at VIM-1 was less than 1000 nM. The Ki on NDM-1 [5] was 10 to 100 nM; at NDM-1 [6] (setting [11]) it was 10 to 100 nM; on OXA-48 (setting [12]) it was less than 10 nM; in data set [2], less than 100 nM; in [3] it was less than 100 nM; in data set [7], less than 100 nM.
For `O=C(O)c1cccc2c1OB(O)[C@@H](Sc1nccs1)C2` [Compound 11, (R)-2-hydroxy-3-(thiazol-2-ylthio)-3,4-dihydro-2H-benzo[e][1,2]oxaborinine-8-carboxylic acid], the IC50 on VIM-1 was not below 1000 nM. Besides, the inhibition constant (Ki) on NDM-1 [5] was more than 100 nM; at NDM-1 [6] (setting [11]), more than 100 nM; in data set [2], less than 100 nM; in [3], less than 100 nM; in data set [7] it was less than 100 nM.
`Cn1cnnc1S[C@H]1Cc2cccc(C(=O)O)c2OB1O` [Compound 15, (R)-2-hydroxy-3-(4-methyl-4H-1,2,4-triazol-3-ylthio)-3,4-dihydro-2H-benzo[e][1,2]oxaborinine-8-carboxylic acid] showed an IC50 at VIM-1 of less than 1000 nM. Besides, the Ki was 10 to 100 nM on NDM-1 [6] (setting [10]); 10 to 100 nM at NDM-1 [6] (setting [11]); 10 to 100 nM at NDM-1 [6] (cleavage of meropenem (100 uM) by NDM-1, read-out: Ki, Meropenem); less than 10 nM at OXA-48 (setting [12]); 100 to 1000 nM in data set [1]; less than 100 nM in data set [2]. Moreover, the inhibition constant (Ki) in data set [3] and in [7] was less than 100 nM each time.
Turning to `NC(=O)CC1Cc2cccc(C(=O)O)c2OB1O` (stereo not drawn) [Compound 22, 3-(2-amino-2-oxoethyl)-2-hydroxy-3,4-dihydro-2H-benzo[e][1,2]oxaborinine-8-carboxylic acid], the Ki in [1], in data set [2], in [3] and in [7] was less than 100 nM each time.
Turning to `COc1ccc2c(c1C(=O)OCOC(=O)C(C)C)OB(O)[C@@H](Sc1nncs1)C2` [Compound 121, 2-methylpropanoyloxymethyl (3R)-2-hydroxy-7-methoxy-3-(1,3,4-thiadiazol-2-ylsulfanyl)-3,4-dihydro-1,2-benzoxaborinine-8-carboxylate], in data set [8], the “Measured Initial Conc. in Serum” value turned out to be 51.4 µM, the “Conc. at t = 1 hr” value came to 38.6 µM and the “Conc. at t = 3 hr” value is 24.8 µM. In [9], the “Measured Initial Conc. in Serum” value was found to be 31.3 µM, the “Conc. at t = 1 hr” value was found to be 40.7 µM and the “Conc. at t = 3 hr” value is 24.3 µM.
For `COc1ccc2c(c1C(=O)OCOC(=O)OC(C)C)OB(O)[C@@H](Sc1nncs1)C2` [Compound 122, isopropoxycarbonyloxymethyl (3R)-2-hydroxy-7-methoxy-3-(1,3,4-thiadiazol-2-ylsulfanyl)-3,4-dihydro-1,2-benzoxaborinine-8-carboxylate], in data set [8], the “Measured Initial Conc. in Serum” value turned out to be 44.3 µM, the “Conc. at t = 1 hr” value turned out to be 34.1 µM and the “Conc. at t = 3 hr” value came out at 47.1 µM. Moreover, in data set [9], the “Measured Initial Conc. in Serum” value came to 37.7 µM, the “Conc. at t = 1 hr” value was found to be 26.6 µM and the “Conc. at t = 3 hr” value came out at 39.0 µM.
Consider `COc1ccc2c(c1C(=O)OCOC(C)=O)OB(O)[C@@H](Sc1nncs1)C2` [Compound 123, acetoxymethyl (3R)-2-hydroxy-7-methoxy-3-(1,3,4-thiadiazol-2-ylsulfanyl)-3,4-dihydro-1,2-benzoxaborinine-8-carboxylate], for which, in data set [8], the “Measured Initial Conc. in Serum” value came to 51.7 µM, the “Conc. at t = 1 hr” value stood at 43.4 µM and the “Conc. at t = 3 hr” value was 30.7 µM. In addition, in data set [9], the “Measured Initial Conc. in Serum” value was 51.5 µM, the “Conc. at t = 1 hr” value worked out at 26.1 µM and the “Conc. at t = 3 hr” value came to 8.6 µM. Further, the “conversion of prodrug to active metabolite” value in data set [9] (serum species not given, 4 hour experiment) was “completely converted to active metabolite”.
With `CCOC(=O)OCOC(=O)c1c(OC)ccc2c1OB(O)[C@@H](Sc1nncs1)C2` [Compound 124, ethoxycarbonyloxymethyl (3R)-2-hydroxy-7-methoxy-3-(1,3,4-thiadiazol-2-ylsulfanyl)-3,4-dihydro-1,2-benzoxaborinine-8-carboxylate], in data set [8], the “Measured Initial Conc. in Serum” value amounted to 48.3 µM, the “Conc. at t = 1 hr” value came to 38.3 µM and the “Conc. at t = 3 hr” value was 45.9 µM. Moreover, in [9], the “Measured Initial Conc. in Serum” value worked out at 44.9 µM, the “Conc. at t = 1 hr” value turned out to be 36.8 µM and the “Conc. at t = 3 hr” value is 41.2 µM.
On to `COc1ccc2c(c1C(=O)OCOC(=O)C(C)(C)C)OB(O)[C@@H](Sc1nncs1)C2` [Compound 125, 2,2-dimethylpropanoyloxymethyl (3R)-2-hydroxy-7-methoxy-3-(1,3,4-thiadiazol-2-ylsulfanyl)-3,4-dihydro-1,2-benzoxaborinine-8-carboxylate], for which, in data set [8], the “Measured Initial Conc. in Serum” value stood at 41.8 µM, the “Conc. at t = 1 hr” value was found to be 27.4 µM and the “Conc. at t = 3 hr” value stood at 41.4 µM. In addition, in data set [9], the “Measured Initial Conc. in Serum” value turned out to be 37.6 µM, the “Conc. at t = 1 hr” value is 28.5 µM and the “Conc. at t = 3 hr” value is 48.2 µM.
For the compound `C[C@]1(Cn2ccnn2)[C@H](C(=O)O)N2C(=O)C[C@H]2S1(=O)=O` [Tazobactam], the Ki was more than 1000 nM in data set [1], 100 to 1000 nM in data set [2] and 100 to 1000 nM in data set [3].
